Each compound was assayed against hROMK (human Kir1.1) (Homo sapiens (Human), UniProt P48048) (assay: Thallium Flux Assay). Conditions: CHO T-Rex hROMK stable cell line, 10-point concentration response; read-out: hROMK Th+ Flux IC50.
Format: cell-based
Procedure: Solutions and reagents: Thallium flux assay was performed using FluxOR kit (F10017, Life Technologies). Loading buffer, assay buffer and stimulus buffer were prepared using kit components. HBSS (Hank's balanced salt solution, Cat #14025-092) was purchased separately from Life Technologies.
To prepare 10 ml of loading buffer: 10 μl of FluxOR dye (reconstituted in DMSO) was first added to 100 μl of powerload concentrate and this mix along with 100 μl of Probenicid (100×) was then added to 9.79 ml of HBSS. Assay buffer (10 ml) was prepared by addition of 2 ml of FluxOR chloride free buffer (5×), 100 μl of Probenicid (100×), and 0.2 ml of Ouabain (13.77 mM) to 7.7 ml of deionized water. Stimulus buffer was composed of 15 mM Tl2SO4, 0.75 mM K2SO4 in FluxOR chloride free buffer (diluted to 1× using deionized water). The final concentration of Tl2SO4 and K2SO4 in the assay plate was 3 mM and 0.15 mM, respectively.
Plating and induction of cells: The CHO T-Rex hROMK (human Kir1.1) stable cell line was maintained in Ham's F12 media supplemented with 10% FBS, 1% Penicillin-Streptomycin, 500 μg/ml Zeocin and 10 μg/ml Blasticidin at 37° C. in a 5% CO2 incubator. One day before the experiment, the cells were dissociated by incubation with Versene solution (15040-066, Life Technologies) for 10 minutes at 37° C. followed by addition of growth media. The cell suspension was centrifuged at 1200 rpm for 5 min. After discarding the supernatant, the cells were resuspended in fresh growth media and cell concentration was determined using a hemocytometer. Next, 0.5 μg/ml of Doxycycline was added to the cell suspension to induce hROMK channel expression and 50 μl (10,000 cells/well) of cell suspension was added to each well of a poly-D lysine coated 384 well black, optically clear bottom plate (6007718, Perkin Elmer). The assay plate was kept at 37° C. in a 5% CO2 incubator.
Assay protocol: On the day of experiment, media was removed and loading buffer was added (30 μl/well) to the assay plate. The cells were incubated in the loading buffer for 30 minutes at 37° C. The loading buffer was then replaced by assay buffer (30 μl/well) followed by addition of test compounds or controls. The cells were incubated with compounds for 30 minutes and the plate was then mounted on FlexStation (Molecular Devices) for fluorescence read out with excitation and emission wavelengths at 488 and 525 nm, respectively. Each well was read for 90 sec at 2 sec interval and the stimulus buffer was added after 20 seconds of baseline recording. The final DMSO concentration was either 0.5 or 1% in the assay plate. […] controls were defined by addition of DMSO or 3 μM of a standard ROMK inhibitor, respectively, to the wells instead of a test compound.
A 10-point concentration response curve was used to estimate the IC50 value of test compounds.
The data in Table 3 is reported with two significant figures.

Chain of hROMK (human Kir1.1) (P48048 whole entry): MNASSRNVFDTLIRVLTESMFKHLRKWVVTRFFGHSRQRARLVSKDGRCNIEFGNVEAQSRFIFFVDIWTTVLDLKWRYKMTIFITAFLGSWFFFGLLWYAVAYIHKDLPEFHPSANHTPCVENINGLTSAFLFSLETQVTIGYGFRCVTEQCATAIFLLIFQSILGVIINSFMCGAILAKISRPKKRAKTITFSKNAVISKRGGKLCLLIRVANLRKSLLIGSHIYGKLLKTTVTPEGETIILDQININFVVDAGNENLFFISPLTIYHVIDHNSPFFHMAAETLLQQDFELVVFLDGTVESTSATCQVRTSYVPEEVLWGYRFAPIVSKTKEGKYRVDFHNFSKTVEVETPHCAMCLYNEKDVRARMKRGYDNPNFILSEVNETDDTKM

Question: Which IC50 does the source give for `N#Cc1ccc(Nc2ccc3c(n2)CCN(CCc2ccc4c(c2)COC4=O)C3)cc1F` [Example 7, 2-fluoro-4-((6-(2-(1-oxo-1,3-dihydroisobenzofuran-5-yl)ethyl)-5,6,7,8-tetrahydro-1,6-naphthyridin-2-yl)amino)benzonitrile] here?
Answer: Its IC50 is 200 nM.

Question: `Cc1c(N2CCc3cc(NCc4ccc(C#N)c(F)c4)ccc3C2)ccc2c1COC2=O` [Example 10, 2-fluoro-4-(((2-(4-methyl-1-oxo-1,3-dihydroisobenzofuran-5-yl)-1,2,3,4-tetrahydroisoquinolin-6-yl)amino)methyl)benzonitrile] was tested. Which IC50 did it give?
Answer: The IC50 was 4600 nM.

Question: With `N#Cc1ccc2c(cnn2-c2ncc3c(n2)CCN(Cc2ccc4c(c2)COC4=O)C3)c1` [Example 11, 1-(6-((1-oxo-1,3-dihydroisobenzofuran-5-yl)methyl)-5,6,7,8-tetrahydropyrido[4,3-d]pyrimidin-2-yl)-1H-indazole-5-carbonitrile] as the compound, how does the IC50 read?
Answer: Its IC50 is 1200 nM.

Question: How did the IC50 turn out when `Cc1c(CN2CCc3nc(-n4ncc5cc(C#N)ccc54)ncc3C2)ccc2c1COC2=O` [Example 13, 1-(6-((4-methyl-1-oxo-1,3-dihydro-isobenzofuran-5-yl)methyl)-5,6,7,8-tetrahydropyrido[4,3-d]pyrimidin-2-yl)-1H-indazole-5-carbonitrile] was run?
Answer: The IC50 was 750 nM.

Question: With `Cc1c(CN2CCc3cc(Nc4ccc5oc(=O)n(C)c5c4)ccc3C2)ccc2c1COC2=O` [Example 14, 3-methyl-5-((2-((4-methyl-1-oxo-1,3-dihydroisobenzofuran-5-yl)methyl)-1,2,3,4-tetrahydroisoquinolin-6-yl)amino)benzo[d]oxazol-2(3H)-one] as the compound, how does the IC50 read?
Answer: Its IC50 is 320 nM.

Question: Which IC50 does the source give for `O=C1OCc2cc(CN3CCc4cc(Nc5ccc6c(c5)COC6=O)ccc4C3)ccc21` [Example 15, 5-((6-((1-oxo-1,3-dihydroisobenzofuran-5-yl)amino)-3,4-dihydroisoquinolin-2(1H)-yl)methyl)isobenzofuran-1(3H)-one] here?
Answer: The IC50 was 21 nM.

Question: Which IC50 does the source give for `Cc1c(CN2CCc3nc(-n4ccc5c(C#N)cccc54)ncc3C2)ccc2c1COC2=O` [Example 20, 1-(6-((4-methyl-1-oxo-1,3-dihydro-isobenzofuran-5-yl)methyl)-5,6,7,8-tetrahydropyrido[4,3-d]pyrimidin-2-yl)-1H-indole-4-carbonitrile] here?
Answer: Its IC50 is 1500 nM.

Question: How did the IC50 turn out when `Cc1c(CN2CCc3nc(-n4ccc5cc(C#N)ccc54)ncc3C2)ccc2c1COC2=O` [Example 21, 1-(6-((4-methyl-1-oxo-1,3-dihydro-isobenzofuran-5-yl)methyl)-5,6,7,8-tetrahydropyrido[4,3-d]pyrimidin-2-yl)-1H-indole-5-carbonitrile] was run?
Answer: Its IC50 is 3200 nM.

Question: How did the IC50 turn out when `Cc1c(CN2CCc3nc(-n4cc(C#N)c5ccccc54)ncc3C2)ccc2c1COC2=O` [Example 23, 1-(6-((4-methyl-1-oxo-1,3-dihydro-isobenzofuran-5-yl)methyl)-5,6,7,8-tetrahydropyrido[4,3-d]pyrimidin-2-yl)-1H-indole-3-carbonitrile] was run?
Answer: The IC50 was 1100 nM.

Question: How did the IC50 turn out when `Cc1c(CN2CCc3cc(-n4ccc5c(C#N)cccc54)ccc3C2)ccc2c1COC2=O` [Example 24, 1-(2-((4-methyl-1-oxo-1,3-dihydro-isobenzofuran-5-yl)methyl)-1,2,3,4-tetrahydroisoquinolin-6-yl)-1H-indole-4-carbonitrile] was run?
Answer: The IC50 was 820 nM.

Question: How did the IC50 turn out when `Cc1c(CN2CCc3nc(Nc4ccc(C#N)c(F)c4)ncc3C2)ccc2c1COC2=O` [Example 26, 2-fluoro-4-((6-((4-methyl-1-oxo-1,3-dihydroisobenzofuran-5-yl)methyl)-5,6,7,8-tetrahydropyrido[4,3-d]pyrimidin-2-yl)amino) benzonitrile] was run?
Answer: Its IC50 is 270 nM.

Question: Which IC50 does the source give for `Cc1c(CCN2CCc3nc(Nc4ccc(C#N)c(F)c4)ncc3C2)ccc2c1COC2=O` [Example 27, 2-fluoro-4-((6-(2-(4-methyl-1-oxo-1,3-dihydroisobenzofuran-5-yl)ethyl)-5,6,7,8-tetrahydropyrido[4,3-d]pyrimidin-2-yl)amino) benzonitrile] here?
Answer: The IC50 was 200 nM.
